Among the data in patent US7304174B2, “CaSR antagonist” (Japan Tobacco Inc., priority 2003, dated 2007) are IC50 values, retold here.

Each structure is given as a SMILES string.

The target of this assay is T1, human calcium receptor (Homo sapiens, UniProt P41180).
T1 construct: expressed in transfected cells; host or cells: cell strain derived from rat adrenal, co-transformed with luciferase cDNA
T1 sequence (P41180 20-1078): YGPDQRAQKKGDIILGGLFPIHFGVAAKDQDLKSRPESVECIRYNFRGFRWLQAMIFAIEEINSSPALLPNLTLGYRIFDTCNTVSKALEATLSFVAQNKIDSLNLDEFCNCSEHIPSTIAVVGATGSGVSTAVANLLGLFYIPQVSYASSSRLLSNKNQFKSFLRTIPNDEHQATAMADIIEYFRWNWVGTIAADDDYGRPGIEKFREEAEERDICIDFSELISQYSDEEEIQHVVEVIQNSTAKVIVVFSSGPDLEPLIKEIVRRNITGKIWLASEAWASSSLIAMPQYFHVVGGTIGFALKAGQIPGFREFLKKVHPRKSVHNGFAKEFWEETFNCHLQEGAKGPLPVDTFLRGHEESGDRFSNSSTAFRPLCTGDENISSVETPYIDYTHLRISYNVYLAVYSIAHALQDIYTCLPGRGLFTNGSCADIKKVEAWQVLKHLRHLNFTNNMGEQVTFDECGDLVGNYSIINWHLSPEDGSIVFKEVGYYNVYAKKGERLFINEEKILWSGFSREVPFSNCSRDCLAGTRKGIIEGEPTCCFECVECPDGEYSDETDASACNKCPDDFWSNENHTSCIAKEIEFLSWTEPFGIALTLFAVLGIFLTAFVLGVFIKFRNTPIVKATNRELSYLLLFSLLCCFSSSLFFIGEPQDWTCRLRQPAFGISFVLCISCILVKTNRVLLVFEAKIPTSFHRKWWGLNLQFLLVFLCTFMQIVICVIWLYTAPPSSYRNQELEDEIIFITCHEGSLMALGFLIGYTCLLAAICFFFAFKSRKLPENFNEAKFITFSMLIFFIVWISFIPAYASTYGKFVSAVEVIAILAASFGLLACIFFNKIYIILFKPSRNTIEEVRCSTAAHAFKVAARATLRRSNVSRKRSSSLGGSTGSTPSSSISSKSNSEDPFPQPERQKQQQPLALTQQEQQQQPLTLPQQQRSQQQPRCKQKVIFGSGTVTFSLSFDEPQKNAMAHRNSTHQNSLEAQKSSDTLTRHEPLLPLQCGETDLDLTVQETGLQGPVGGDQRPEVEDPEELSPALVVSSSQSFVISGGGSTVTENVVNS
The assay can be described thus: Evaluation of antagonistic action on calcium receptor using reporter gene (luciferase). To be noted: transformed rat adrenal derived cells, 5 mM calcium chloride, culture 4 hrs, luciferase activity; read-out: Reporter gene assay (IC50, concentration showing 50% inhibitory rate). Format: cell-based. The procedure:
Evaluation of Antagonistic Action on Calcium Receptor Using Reporter Gene
Luciferase cDNA and human calcium receptor cDNA were introduced into a cell strain derived from rat adrenal to transform the cells, and the transformed cells were cultured in a medium (80 μl, F12 medium containing 0.5% dialyzed horse serum and 0.25% dialyzed bovine fetal serum). A dimethyl sulfoxide solution containing a test compound at 0.1-10000 μM was diluted 100-fold with the medium and added to the test compound group at 10 μl per well (dimethyl sulfoxide final concentration 0.1%). In the same manner as in test compound group, dimethyl sulfoxide 100-fold diluted with medium was added to a control group and a blank group. Then, 50 mM calcium chloride-containing medium was added to every well except the blank group at 10 μl per well (final concentration 5 mM). A medium containing 50 mM calcium chloride was added to the control group at 10 μl per well, such that the final calcium concentration of the medium became 5 mM. A medium alone was added to the blank group. After culture for 4 hrs, luciferase substrate was added and the luciferase activity was measured with a photoluminometer. The inhibitory rate (%) was calculated from the obtained measured values according to the following formula.
Based on the results, the concentration (IC50) showing 50% inhibitory rate was determined. The results are shown in the aforementioned Tables 1 to 60.
In general terms: Reporter assays use an easily measured gene product as a stand-in for the process of interest.
In the case of `CCC(C)c1cc(-c2ccccc2[C@@H](C)OC[C@H](O)CNC(C)(C)Cc2ccc(C)c(F)c2)ccc1C(=O)O` (stereo partly drawn) [Example 1-53, 2′-[1-[(2R)-3-[[1-(3-fluoro-4-methylphenyl)-2-methylpropan-2-yl]amino]-2-hydroxypropoxy]ethyl]-3-(1-methylpropyl)biphenyl-4-carboxylic acid], the IC50 came to 15 nM.
As to `Cc1cc(C(=O)O)ccc1-c1ccccc1[C@@H](C)OC[C@H](O)CNC(C)(C)Cc1ccc2ccccc2c1` [Example 1-54, 2-methyl-2′-[1-[(2R)-3-[[1-(naphthalen-2-yl)-2-methylpropan-2-yl]amino]-2-hydroxypropoxy]ethyl]biphenyl-4-carboxylic acid], the IC50 turned out to be 23 nM.
`Cc1cc(-c2ccccc2[C@@H](C)OC[C@H](O)CNC(C)(C)Cc2ccc3ccccc3c2)ccc1C(=O)O` [Example 1-55, 3-methyl-2′-[1-[(2R)-3-[[1-(naphthalen-2-yl)-2-methylpropan-2-yl]amino]-2-hydroxypropoxy]ethyl]biphenyl-4-carboxylic acid]: the IC50 is 10 nM.
For `C[C@@H](OC[C@H](O)CNC(C)(C)Cc1ccc2ccccc2c1)c1ccccc1-c1ccc(F)c(C(=O)O)c1` [Example 1-56, 4-fluoro-2′-[1-[(2R)-3-[[1-(naphthalen-2-yl)-2-methylpropan-2-yl]amino]-2-hydroxypropoxy]ethyl]biphenyl-3-carboxylic acid], the IC50 worked out at 19 nM.
With `C[C@@H](OC[C@H](O)CNC(C)(C)Cc1ccc2ccccc2c1)c1ccccc1-c1cc(C(=O)O)ccc1F` [Example 1-58, 6-fluoro-2′-[1-[(2R)-3-[[1-(naphthalen-2-yl)-2-methylpropan-2-yl]amino]-2-hydroxypropoxy]ethyl]biphenyl-3-carboxylic acid], the IC50 was determined as 21 nM.
Regarding `Cc1cc(-c2ccccc2[C@@H](C)OC[C@H](O)CNC(C)(C)Cc2cccc(Cl)c2)ccc1C(=O)O` [Example 1-60, 2′-[1-[(2R)-3-[[1-(3-chlorophenyl)-2-methylpropan-2-yl]amino]-2-hydroxypropoxy]ethyl]-3-methylbiphenyl-4-carboxylic acid], the IC50 is 96 nM.
Next, `Cc1cc(-c2ccccc2[C@@H](C)OC[C@H](O)CNC(C)(C)Cc2ccc(Cl)c(Cl)c2)ccc1C(=O)O` [Example 1-61, 2′-[1-[(2R)-3-[[1-(3,4-dichlorophenyl)-2-methylpropan-2-yl]amino]-2-hydroxypropoxy]ethyl]-3-methylbiphenyl-4-carboxylic acid]: 4 nM; `C[C@@H](OC[C@H](O)CNC(C)(C)Cc1ccc2ccccc2c1)c1ccccc1-c1ccc(C(=O)O)cc1F` [Example 1-62, 2-fluoro-2′-[1-[(2R)-3-[[1-(naphthalen-2-yl)-2-methylpropan-2-yl]amino]-2-hydroxypropoxy]ethyl]biphenyl-4-carboxylic acid]: 8 nM.
Consider `Cc1cc(-c2ccccc2C(OC[C@H](O)CNC(C)(C)Cc2ccc3ccccc3c2)C2CC2)ccc1C(=O)O` (stereo partly drawn) [Example 1-63, 2′-[(cyclopropyl)[(2R)-3-[[1-(naphthalen-2-yl)-2-methylpropan-2-yl]amino]-2-hydroxypropoxy]methyl]-3-methylbiphenyl-4-carboxylic acid], for which the IC50 stood at 16 nM.
Regarding `CC(C)(Cc1ccc2ccccc2c1)NC[C@@H](O)COC(c1ccccc1-c1ccc(C(=O)O)c(F)c1)C1CC1` (stereo partly drawn) [Example 1-64, 2′-[(cyclopropyl)[(2R)-3-[[1-(naphthalen-2-yl)-2-methylpropan-2-yl]amino]-2-hydroxypropoxy]methyl]-3-fluorobiphenyl-4-carboxylic acid], the IC50 turned out to be 17 nM.
As to `CC(C)(Cc1ccc2ccccc2c1)NC[C@@H](O)COC(c1ccccc1-c1ccc(C(=O)O)cc1F)C1CC1` (stereo partly drawn) [Example 1-65, 2′-[(cyclopropyl)[(2R)-3-[[1-(naphthalen-2-yl)-2-methylpropan-2-yl]amino]-2-hydroxypropoxy]methyl]-2-fluorobiphenyl-4-carboxylic acid], the IC50 came out at 16 nM.
Turning to `Cc1cc(C(=O)O)ccc1-c1ccccc1C(OC[C@H](O)CNC(C)(C)Cc1ccc2ccccc2c1)C1CC1` (stereo partly drawn) [Example 1-66, 2′-[(cyclopropyl)[(2R)-3-[[1-(naphthalen-2-yl)-2-methylpropan-2-yl]amino]-2-hydroxypropoxy]methyl]-2-methylbiphenyl-4-carboxylic acid], the IC50 was found to be 17 nM.
`C[C@@H](OC[C@H](O)CNC(C)(C)Cc1ccc(Cl)c(Cl)c1)c1ccccc1-c1ccc(C(=O)O)cc1F` [Example 1-67, 2′-[1-[(2R)-3-[[1-(3,4-dichlorophenyl)-2-methylpropan-2-yl]amino]-2-hydroxypropoxy]ethyl]-2-fluorobiphenyl-4-carboxylic acid]: the IC50 was determined as 19 nM.
Consider `C[C@@H](OC[C@H](O)CNC(C)(C)Cc1ccc2ccccc2c1)c1ccccc1-c1ccc(C(=O)O)c(Cl)c1` [Example 1-68, 3-chloro-2′-[1-[(2R)-3-[[1-(naphthalen-2-yl)-2-methylpropan-2-yl]amino]-2-hydroxypropoxy]ethyl]biphenyl-4-carboxylic acid], for which the IC50 was determined as 3 nM.
Regarding `C[C@@H](OC[C@H](O)CNC(C)(C)Cc1ccc2ccccc2c1)c1ccccc1-c1ccc(C(=O)O)c([N+](=O)[O-])c1` [Example 1-69, 2′-[1-[(2R)-3-[[1-(naphthalen-2-yl)-2-methylpropan-2-yl]amino]-2-hydroxypropoxy]ethyl]-3-nitrobiphenyl-4-carboxylic acid], the IC50 is 2 nM.
Next, `C[C@@H](OC[C@H](O)CNC(C)(C)Cc1ccc2ccccc2c1)c1ccccc1-c1ccc(C(=O)O)c(N)c1` [Example 1-70, 3-amino-2′-[1-[(2R)-3-[[1-(naphthalen-2-yl)-2-methylpropan-2-yl]amino]-2-hydroxypropoxy]ethyl]biphenyl-4-carboxylic acid]: 5 nM; `CC(=O)Nc1cc(-c2ccccc2[C@@H](C)OC[C@H](O)CNC(C)(C)Cc2ccc3ccccc3c2)ccc1C(=O)O` [Example 1-71, 3-(acetylamino)-2′-[1-[(2R)-3-[[1-(naphthalen-2-yl)-2-methylpropan-2-yl]amino]-2-hydroxypropoxy]ethyl]biphenyl-4-carboxylic acid]: 5 nM; `Cc1ccc(CC(C)(C)NC[C@@H](O)CO[C@H](C)c2ccccc2-c2ccc(C(=O)O)c(Cl)c2)cc1F` [Example 1-72, 3-chloro-2′-[1-[(2R)-3-[[1-(3-fluoro-4-methylphenyl)-2-methylpropan-2-yl]amino]-2-hydroxypropoxy]ethyl]biphenyl-4-carboxylic acid]: 15 nM.
`C[C@@H](OC[C@H](O)CNC(C)(C)Cc1ccc2ccccc2c1)c1ccccc1-c1cc2c(c(C(=O)O)c1)OCC2` [Example 1-74, 2,3-dihydro-5-[2-[1-[(2R)-3-[[1-(naphthalen-2-yl)-2-methylpropan-2-yl]amino]-2-hydroxypropoxy]ethyl]phenyl]benzofuran-7-carboxylic acid]: the IC50 was 11 nM.
For the molecule `Cc1cc(C(=O)O)cc(C)c1-c1ccccc1[C@@H](C)OC[C@H](O)CNC(C)(C)Cc1ccc2ccccc2c1` [Example 1-75, 2,6-dimethyl-2′-[1-[(2R)-3-[[1-(naphthalen-2-yl)-2-methylpropan-2-yl]amino]-2-hydroxypropoxy]ethyl]biphenyl-4-carboxylic acid], the IC50 amounted to 12 nM.
Next, `Cc1ccc(CC(C)(C)NC[C@@H](O)CO[C@H](C)c2ccccc2-c2c(C)cc(C(=O)O)cc2C)cc1F` [Example 1-76]: 22 nM.
As to `C[C@@H](OC[C@H](O)CNC(C)(C)Cc1ccc2ccccc2c1)c1ccccc1-c1ccc(C(=O)O)c(N(C)C)c1` [Example 1-77, 3-(dimethylamino)-2′-[1-[(2R)-3-[[1-(naphthalen-2-yl)-2-methylpropan-2-yl]amino]-2-hydroxypropoxy]ethyl]biphenyl-4-carboxylic acid], the IC50 stood at 21 nM.
